Measured values from paper PMC12155096 (International Journal of Molecular Sciences, 2025).

These compounds were tested against human CYP2C19 (Homo sapiens, UniProt P33261) (assay: not given). Details: not given.
Chain of human CYP2C19 (P33261 whole entry): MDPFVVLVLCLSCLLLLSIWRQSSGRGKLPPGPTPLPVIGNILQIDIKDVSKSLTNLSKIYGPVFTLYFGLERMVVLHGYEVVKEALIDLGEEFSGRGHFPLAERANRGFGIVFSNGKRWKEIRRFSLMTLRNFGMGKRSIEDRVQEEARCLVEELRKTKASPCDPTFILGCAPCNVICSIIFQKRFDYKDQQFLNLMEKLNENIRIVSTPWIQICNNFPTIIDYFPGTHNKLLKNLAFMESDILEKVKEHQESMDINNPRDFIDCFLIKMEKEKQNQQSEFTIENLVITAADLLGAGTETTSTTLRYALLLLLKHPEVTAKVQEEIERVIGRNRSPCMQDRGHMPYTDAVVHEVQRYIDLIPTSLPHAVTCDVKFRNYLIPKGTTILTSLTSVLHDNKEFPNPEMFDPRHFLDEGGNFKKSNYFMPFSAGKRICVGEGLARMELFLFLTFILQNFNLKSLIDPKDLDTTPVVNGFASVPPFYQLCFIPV

Compound	IC50 [µM]	CYP2C19 Efficacy (in parenthesis)	AC50 [µM]	CYP2C19 IC50
CCCN(CCC)CCc1c[nH]c2ccccc12.Cl [N,N-Dipropyltryptamine hydrochloride]	65.9			
Cc1ccc([N+](=O)[O-])[c]2c1[O][Hg]2 [Nitromersol]	1.28	1.28 ± 0.79 (-139 ± 25) %		
CN1CCN(C2Cc3ccccc3Sc3ccc(Cl)cc32)CC1.O=C(O)/C=C\C(=O)O (stereo not drawn) [Octoclothepine maleate]	11.5			
O=S(=O)([O-])C(F)(F)C(F)(F)C(F)(F)C(F)(F)C(F)(F)C(F)(F)C(F)(F)C(F)(F)F.[K+] [PFOS-K]	39.6			
O=S(=O)(O)C(F)(F)C(F)(F)C(F)(F)C(F)(F)C(F)(F)C(F)(F)C(F)(F)C(F)(F)F [PFOS]	23.4			
OC(c1ccc(Cl)cc1)(c1ccc(Cl)cc1)c1cccnc1 [Parinol]	0.08	0.08 ± 0.01 (-151 ± 12) %		
CO/C=C(/C(=O)OC)c1ccccc1COc1cccc(C(F)(F)F)n1 [Picoxystrobin]	0.99		0.99	
COc1cc2c(cc1OC)C(C(C(=O)N(CCc1ccc(OC)c(OC)c1OC)CCc1ccc(OC)c(OC)c1OC)c1ccccc1)=NCC2.Cl (stereo not drawn) [Pinokalant hydrochloride]	19.6			
CC(=O)/C=C/c1ccc2c(c1)OCO2 [Piperonal acetone]	14.5			
CC(=O)CCc1ccc2c(c1)OCO2 [Piperonyl acetone]	29.9			
O=C(NCc1cccnc1)Nc1ccc([N+](=O)[O-])cc1 [Pyrinuron]	3.28	3.28 ± 1.56 (-135 ± 13) %		
C[C@@H]1CN(CCCn2c3ccccc3c3ccccc32)C[C@H](C)N1.Cl.Cl [Rimcazole dihydrochloride]				Inactive

What follows are compounds tested against human CYP2D6 (Homo sapiens, UniProt P10635) (assay: not given). Details: not given.
Chain of human CYP2D6 (P10635 whole entry): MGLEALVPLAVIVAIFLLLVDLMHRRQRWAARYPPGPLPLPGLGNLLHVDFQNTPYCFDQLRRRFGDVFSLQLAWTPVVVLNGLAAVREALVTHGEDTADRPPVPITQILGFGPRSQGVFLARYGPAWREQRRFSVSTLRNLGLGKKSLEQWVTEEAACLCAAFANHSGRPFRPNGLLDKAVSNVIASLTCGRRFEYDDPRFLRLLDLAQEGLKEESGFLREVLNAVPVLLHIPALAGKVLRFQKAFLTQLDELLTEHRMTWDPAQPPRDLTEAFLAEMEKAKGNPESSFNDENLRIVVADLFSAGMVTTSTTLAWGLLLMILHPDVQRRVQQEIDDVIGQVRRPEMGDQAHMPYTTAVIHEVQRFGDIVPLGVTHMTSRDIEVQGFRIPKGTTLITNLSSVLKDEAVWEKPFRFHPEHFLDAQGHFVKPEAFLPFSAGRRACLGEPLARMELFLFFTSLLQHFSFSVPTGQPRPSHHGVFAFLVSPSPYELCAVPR

Compound	IC50 [µM]	CYP2D6 Efficacy (in parenthesis)	CYP2D6 IC50 (half-maximal inhibitory concentration)	AC50 [µM]	CYP2D6 Efficacy
CCCN(CCC)CCc1c[nH]c2ccccc12.Cl [N,N-Dipropyltryptamine hydrochloride]	0.31				
Cc1ccc([N+](=O)[O-])[c]2c1[O][Hg]2 [Nitromersol]	0.78	0.78 ± 0.09 (-101 ± 2) %			
CN1CCN(C2Cc3ccccc3Sc3ccc(Cl)cc32)CC1.O=C(O)/C=C\C(=O)O (stereo not drawn) [Octoclothepine maleate]	0.26				
O=S(=O)([O-])C(F)(F)C(F)(F)C(F)(F)C(F)(F)C(F)(F)C(F)(F)C(F)(F)C(F)(F)F.[K+] [PFOS-K]			Inactive		
O=S(=O)(O)C(F)(F)C(F)(F)C(F)(F)C(F)(F)C(F)(F)C(F)(F)C(F)(F)C(F)(F)F [PFOS]	28.4				
OC(c1ccc(Cl)cc1)(c1ccc(Cl)cc1)c1cccnc1 [Parinol]	14.2	14.17 ± 5.05 (-105 ± 7) %			
CO/C=C(/C(=O)OC)c1ccccc1COc1cccc(C(F)(F)F)n1 [Picoxystrobin]	38.4			38.4	
COc1cc2c(cc1OC)C(C(C(=O)N(CCc1ccc(OC)c(OC)c1OC)CCc1ccc(OC)c(OC)c1OC)c1ccccc1)=NCC2.Cl (stereo not drawn) [Pinokalant hydrochloride]					9.34 ± 4.19 (-64 ± 10) %
CC(=O)/C=C/c1ccc2c(c1)OCO2 [Piperonal acetone]					31 ± 5.28 (-103 ± 9) %
CC(=O)CCc1ccc2c(c1)OCO2 [Piperonyl acetone]					44.96 ± 16.37 (-42 ± 9) %
O=C(NCc1cccnc1)Nc1ccc([N+](=O)[O-])cc1 [Pyrinuron]	44.8	44.8 ± 15.98 (-64 ± 3) %			
C[C@@H]1CN(CCCn2c3ccccc3c3ccccc32)C[C@H](C)N1.Cl.Cl [Rimcazole dihydrochloride]					0.4 ± 0.03 (-102 ± 4) %

What follows are compounds tested against Photinus pyralis (firefly) luciferase (Photinus pyralis, UniProt P08659) (assay: biochemical). Details: not given.
Chain of Photinus pyralis (firefly) luciferase (P08659 whole entry): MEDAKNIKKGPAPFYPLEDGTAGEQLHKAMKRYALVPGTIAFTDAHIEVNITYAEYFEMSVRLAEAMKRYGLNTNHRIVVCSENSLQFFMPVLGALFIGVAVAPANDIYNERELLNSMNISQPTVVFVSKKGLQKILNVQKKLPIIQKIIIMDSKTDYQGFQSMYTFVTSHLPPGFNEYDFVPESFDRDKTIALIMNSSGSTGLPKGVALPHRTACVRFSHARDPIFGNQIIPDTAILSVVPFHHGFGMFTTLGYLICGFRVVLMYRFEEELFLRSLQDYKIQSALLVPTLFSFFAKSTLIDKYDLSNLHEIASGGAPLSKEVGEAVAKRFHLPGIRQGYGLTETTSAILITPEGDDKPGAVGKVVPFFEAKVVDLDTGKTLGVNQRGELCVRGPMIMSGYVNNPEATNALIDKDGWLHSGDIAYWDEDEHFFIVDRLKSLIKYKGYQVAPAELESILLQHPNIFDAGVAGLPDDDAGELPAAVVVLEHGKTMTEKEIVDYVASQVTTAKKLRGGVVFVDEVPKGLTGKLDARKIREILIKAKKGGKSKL
Assay type: biochemical

Compound	Luciferase IC50	Luciferase Efficacy (in parenthesis)	Luciferase IC50 (half-maximal inhibitory concentration)
CCCN(CCC)CCc1c[nH]c2ccccc12.Cl [N,N-Dipropyltryptamine hydrochloride]	Inactive		
Cc1ccc([N+](=O)[O-])[c]2c1[O][Hg]2 [Nitromersol]		12.48 ± 4.81 (-100 ± 9) %	
CN1CCN(C2Cc3ccccc3Sc3ccc(Cl)cc32)CC1.O=C(O)/C=C\C(=O)O (stereo not drawn) [Octoclothepine maleate]	Inactive		
O=S(=O)([O-])C(F)(F)C(F)(F)C(F)(F)C(F)(F)C(F)(F)C(F)(F)C(F)(F)C(F)(F)F.[K+] [PFOS-K]			Inactive
OC(c1ccc(Cl)cc1)(c1ccc(Cl)cc1)c1cccnc1 [Parinol]			Inactive
CO/C=C(/C(=O)OC)c1ccccc1COc1cccc(C(F)(F)F)n1 [Picoxystrobin]			Inactive
COc1cc2c(cc1OC)C(C(C(=O)N(CCc1ccc(OC)c(OC)c1OC)CCc1ccc(OC)c(OC)c1OC)c1ccccc1)=NCC2.Cl (stereo not drawn) [Pinokalant hydrochloride]			Inactive
CC(=O)CCc1ccc2c(c1)OCO2 [Piperonyl acetone]			Inactive
O=C(NCc1cccnc1)Nc1ccc([N+](=O)[O-])cc1 [Pyrinuron]			Inactive
C[C@@H]1CN(CCCn2c3ccccc3c3ccccc32)C[C@H](C)N1.Cl.Cl [Rimcazole dihydrochloride]	Inactive		

Same assay, conditions: read-out: Luciferase IC50 (half-maximal inhibitory concentration)

Compound	IC50 [µM]
Cc1ccc([N+](=O)[O-])[c]2c1[O][Hg]2 [Nitromersol]	12.5
O=S(=O)(O)C(F)(F)C(F)(F)C(F)(F)C(F)(F)C(F)(F)C(F)(F)C(F)(F)C(F)(F)F [PFOS]	71.3
CC(=O)/C=C/c1ccc2c(c1)OCO2 [Piperonal acetone]	40.3

Each compound was assayed against human CYP2C9 (Homo sapiens, UniProt P11712) (assay: not given). Details: not given.
Chain of human CYP2C9 (P11712 whole entry): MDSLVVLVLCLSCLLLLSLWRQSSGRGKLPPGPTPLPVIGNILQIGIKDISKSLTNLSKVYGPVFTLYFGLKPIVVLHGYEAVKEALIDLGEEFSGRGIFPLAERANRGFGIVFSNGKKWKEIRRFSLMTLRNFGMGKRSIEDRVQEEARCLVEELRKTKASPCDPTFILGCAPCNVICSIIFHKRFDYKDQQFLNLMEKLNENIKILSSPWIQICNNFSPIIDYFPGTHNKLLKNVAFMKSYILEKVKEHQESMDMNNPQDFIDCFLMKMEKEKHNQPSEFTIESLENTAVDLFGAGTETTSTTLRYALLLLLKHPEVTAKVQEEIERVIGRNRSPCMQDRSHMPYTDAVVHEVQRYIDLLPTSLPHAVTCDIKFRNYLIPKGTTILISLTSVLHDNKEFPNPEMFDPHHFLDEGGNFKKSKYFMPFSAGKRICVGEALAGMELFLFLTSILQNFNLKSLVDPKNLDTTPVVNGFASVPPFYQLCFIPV

Compound	CYP2C9 IC50	CYP2C9 Efficacy (in parenthesis)	IC50 [µM]	AC50 [µM]	CYP2C9 Efficacy
CCCN(CCC)CCc1c[nH]c2ccccc12.Cl [N,N-Dipropyltryptamine hydrochloride]	Inactive				
Cc1ccc([N+](=O)[O-])[c]2c1[O][Hg]2 [Nitromersol]		0.87 ± 0 (-104 ± 2) %	0.87		
CN1CCN(C2Cc3ccccc3Sc3ccc(Cl)cc32)CC1.O=C(O)/C=C\C(=O)O (stereo not drawn) [Octoclothepine maleate]			30.6		
O=S(=O)([O-])C(F)(F)C(F)(F)C(F)(F)C(F)(F)C(F)(F)C(F)(F)C(F)(F)C(F)(F)F.[K+] [PFOS-K]			0.61		
O=S(=O)(O)C(F)(F)C(F)(F)C(F)(F)C(F)(F)C(F)(F)C(F)(F)C(F)(F)C(F)(F)F [PFOS]			0.51		
OC(c1ccc(Cl)cc1)(c1ccc(Cl)cc1)c1cccnc1 [Parinol]		0.4 ± 0.05 (-109 ± 9) %	0.4		
CO/C=C(/C(=O)OC)c1ccccc1COc1cccc(C(F)(F)F)n1 [Picoxystrobin]			38.4	38.4	
COc1cc2c(cc1OC)C(C(C(=O)N(CCc1ccc(OC)c(OC)c1OC)CCc1ccc(OC)c(OC)c1OC)c1ccccc1)=NCC2.Cl (stereo not drawn) [Pinokalant hydrochloride]					11.86 ± 0.77 (-103 ± 7) %
CC(=O)/C=C/c1ccc2c(c1)OCO2 [Piperonal acetone]					8.04 ± 0.92 (-118 ± 10) %
CC(=O)CCc1ccc2c(c1)OCO2 [Piperonyl acetone]					22.26 ± 9.54 (-102 ± 10) %
O=C(NCc1cccnc1)Nc1ccc([N+](=O)[O-])cc1 [Pyrinuron]		5.43 ± 0.35 (-105 ± 9) %	5.43		
C[C@@H]1CN(CCCn2c3ccccc3c3ccccc32)C[C@H](C)N1.Cl.Cl [Rimcazole dihydrochloride]	Inactive				

What follows are compounds tested against CYP3A4 (Homo sapiens, UniProt P08684) (assay: not given). Details: not given.
Chain of CYP3A4 (P08684 whole entry): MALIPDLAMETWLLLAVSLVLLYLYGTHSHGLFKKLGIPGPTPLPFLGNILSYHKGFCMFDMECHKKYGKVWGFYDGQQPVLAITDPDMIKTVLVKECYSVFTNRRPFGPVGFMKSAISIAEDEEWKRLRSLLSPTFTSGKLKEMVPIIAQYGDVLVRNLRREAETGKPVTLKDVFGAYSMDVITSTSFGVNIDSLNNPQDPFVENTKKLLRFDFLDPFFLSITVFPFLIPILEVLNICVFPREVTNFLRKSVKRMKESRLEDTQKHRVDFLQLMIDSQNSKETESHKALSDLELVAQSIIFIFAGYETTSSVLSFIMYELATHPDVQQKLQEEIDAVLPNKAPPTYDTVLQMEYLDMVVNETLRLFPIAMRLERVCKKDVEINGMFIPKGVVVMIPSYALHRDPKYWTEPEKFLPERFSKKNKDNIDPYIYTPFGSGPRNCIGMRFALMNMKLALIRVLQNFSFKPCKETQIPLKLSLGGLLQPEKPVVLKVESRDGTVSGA

Compound	CYP3A4 IC50	CYP3A4 Efficacy (in parenthesis)	IC50 [µM]	CYP3A4 IC50 (half-maximal inhibitory concentration)	AC50 [µM]
CCCN(CCC)CCc1c[nH]c2ccccc12.Cl [N,N-Dipropyltryptamine hydrochloride]	Inactive				
Cc1ccc([N+](=O)[O-])[c]2c1[O][Hg]2 [Nitromersol]		8.08 ± 0.55 (-86 ± 6) %	8.08		
CN1CCN(C2Cc3ccccc3Sc3ccc(Cl)cc32)CC1.O=C(O)/C=C\C(=O)O (stereo not drawn) [Octoclothepine maleate]			2.28		
O=S(=O)([O-])C(F)(F)C(F)(F)C(F)(F)C(F)(F)C(F)(F)C(F)(F)C(F)(F)C(F)(F)F.[K+] [PFOS-K]				Inactive	
O=S(=O)(O)C(F)(F)C(F)(F)C(F)(F)C(F)(F)C(F)(F)C(F)(F)C(F)(F)C(F)(F)F [PFOS]			80		
OC(c1ccc(Cl)cc1)(c1ccc(Cl)cc1)c1cccnc1 [Parinol]		2.75 ± 0.47 (-69 ± 3) %	2.75		
CO/C=C(/C(=O)OC)c1ccccc1COc1cccc(C(F)(F)F)n1 [Picoxystrobin]				2.32 ± 0.75 (38 ± 1) µM	2.32
COc1cc2c(cc1OC)C(C(C(=O)N(CCc1ccc(OC)c(OC)c1OC)CCc1ccc(OC)c(OC)c1OC)c1ccccc1)=NCC2.Cl (stereo not drawn) [Pinokalant hydrochloride]			0.57		
CC(=O)/C=C/c1ccc2c(c1)OCO2 [Piperonal acetone]			4.65		
CC(=O)CCc1ccc2c(c1)OCO2 [Piperonyl acetone]			18.5		
O=C(NCc1cccnc1)Nc1ccc([N+](=O)[O-])cc1 [Pyrinuron]		0.93 ± 0.12 (-76 ± 5) %	0.93		
C[C@@H]1CN(CCCn2c3ccccc3c3ccccc32)C[C@H](C)N1.Cl.Cl [Rimcazole dihydrochloride]			1.84		

These compounds were tested against T1, human CYP1A2 (Homo sapiens, UniProt P05177) (assay: not given). Details: not given.
T1 sequence (P05177 1-516): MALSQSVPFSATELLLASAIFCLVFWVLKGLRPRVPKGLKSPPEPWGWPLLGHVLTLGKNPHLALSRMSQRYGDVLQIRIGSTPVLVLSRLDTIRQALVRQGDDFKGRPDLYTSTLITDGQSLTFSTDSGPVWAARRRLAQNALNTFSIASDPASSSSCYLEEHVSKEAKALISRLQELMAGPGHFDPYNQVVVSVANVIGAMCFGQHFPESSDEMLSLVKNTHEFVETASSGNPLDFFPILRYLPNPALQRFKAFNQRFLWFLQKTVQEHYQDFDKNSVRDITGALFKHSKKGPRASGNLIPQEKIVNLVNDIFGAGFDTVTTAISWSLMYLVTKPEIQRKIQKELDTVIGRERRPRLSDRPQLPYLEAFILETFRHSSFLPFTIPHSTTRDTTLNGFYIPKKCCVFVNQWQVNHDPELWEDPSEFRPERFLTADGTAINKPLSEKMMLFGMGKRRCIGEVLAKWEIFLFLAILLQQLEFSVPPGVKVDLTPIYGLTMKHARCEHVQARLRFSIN

Compound	IC50 [µM]	CYP1A2 Efficacy (in parenthesis)	CYP1A2 IC50 (half-maximal inhibitory concentration)	AC50 [µM]
CCCN(CCC)CCc1c[nH]c2ccccc12.Cl [N,N-Dipropyltryptamine hydrochloride]	20.8			
Cc1ccc([N+](=O)[O-])[c]2c1[O][Hg]2 [Nitromersol]	4.36	4.36 ± 1.13 (-86 ± 7) %		
CN1CCN(C2Cc3ccccc3Sc3ccc(Cl)cc32)CC1.O=C(O)/C=C\C(=O)O (stereo not drawn) [Octoclothepine maleate]	28.3			
O=S(=O)([O-])C(F)(F)C(F)(F)C(F)(F)C(F)(F)C(F)(F)C(F)(F)C(F)(F)C(F)(F)F.[K+] [PFOS-K]			Inactive	
O=S(=O)(O)C(F)(F)C(F)(F)C(F)(F)C(F)(F)C(F)(F)C(F)(F)C(F)(F)C(F)(F)F [PFOS]	32.3			
OC(c1ccc(Cl)cc1)(c1ccc(Cl)cc1)c1cccnc1 [Parinol]	38.5	38.47 ± 2.51 (-60 ± 13) %		
CO/C=C(/C(=O)OC)c1ccccc1COc1cccc(C(F)(F)F)n1 [Picoxystrobin]	32.1			32.1
COc1cc2c(cc1OC)C(C(C(=O)N(CCc1ccc(OC)c(OC)c1OC)CCc1ccc(OC)c(OC)c1OC)c1ccccc1)=NCC2.Cl (stereo not drawn) [Pinokalant hydrochloride]	37.3			
CC(=O)/C=C/c1ccc2c(c1)OCO2 [Piperonal acetone]	0.25			
CC(=O)CCc1ccc2c(c1)OCO2 [Piperonyl acetone]	0.75			
O=C(NCc1cccnc1)Nc1ccc([N+](=O)[O-])cc1 [Pyrinuron]	15.5	15.45 ± 2.63 (-100 ± 0) %		
C[C@@H]1CN(CCCn2c3ccccc3c3ccccc32)C[C@H](C)N1.Cl.Cl [Rimcazole dihydrochloride]	10.6			
